Data taken from US3954726A, “Double salts of S-adenosil-L-methionine” (Bioresearch Limited, priority 1973, dated 1976).
Counter-ions that a name gives are not always drawn. Like-named read-outs stand apart in the source and are kept apart here.

How the values were obtained:
[1] = Stability with time at 45°C, dry state (percentage of SAM residue); settings: same conditions as Table 1
Description: (§3) The figures refer to the percentage of SAM residue after the times indicated:

[2] = Clinical: metabolism of lipids (hepatosteatosis, hyperdislipidemia); assay type: in vivo, human
Description: Following the information gained from the pharmacological tests, the clinical tests were orientated on morbid affections in which the following appear primitively or secondarily altered: […]

rabbit [3] = assay: Local tolerability of intermuscular and intravenous injection; assay type: in vivo
[4] = mouse, in vivo
Method: (§1) Sam^+.hso4^-.h2 so4 .2 ch3 c6 h4 so3 h and/or SAM^+.HSO4^-.H2 SO4.CH3 C6 H4 SO3 H. In order to indicatively determine how SAM is distributed in the tissues, S-Adenosilmethionine (Methyl C^14) was prepared. The distribution of this product in rats was studied by administering a dose of 10 mg/kg/e.v. equal to 24 μci of radioactive product. The specific activity of the product was 58 mCi/m moles. Parallel to this, an autoradiographic study was made on the mouse.

physchem [5] = assay type: physicochemical
[6] = Clinical: hypoprotidemias, disprotidemias, hepatopathias, cyrrotic states, malabsorption; assay type: in vivo, human; settings: 20-200 mg per day
Method: 2. Hundreds of subjects were treated clinically affected with: secondary hypoprotidemias and disprotidemias; persistent and aggressive cronic hepatopathias; precyrrotic and cyrrotic states; malabsorption syndromes, protide dispersing syndromes.

[7] = Hepatic phospholipids in rats after intoxication with CCl4; assay type: in vivo, rat; settings: for Total phospholipids: average ± E.S. of 10 values
Description: This was confirmed by successive pharmacological tests. […] Hepatic phospholipids in rats after intoxication with CCl4 and treatment with SAM.

[8] = assay type: in vivo, human
[9] = Clinical: antalgic activity in neurological frameworks and cephalalgia; assay type: in vivo, human
Method: The antalgic activity of SAM was also tested in different subjects with different neurological frameworks: neuritis, polyneuritis, anthralgia, sciatica, radiocolitis, torticollis.

[10] = Stretching by acetic acid (analgesia); settings: rat, in vivo
Description: (§2) Ot the various tests we shall mention the most classic, namely the edema by carragenine and by egg white as a test for acute inflammation; and granuloma by cotton […] arthritis by adjuvant as a test for chronic inflammation. […] The analgesia tests were in the form of the hot plate tests and stretching by acetic acid, and the Randal and Drlitto tests in the rat.

[11] = dry state
Description: as §3

[12] = Clinical: depressive forms (tests of Hamilton and Wittenberg); assay type: in vivo, human; settings: 20-50 mg 3-4 times per day, 5-15 days, no other therapy
rats = settings: rat, in vivo
[13] = Clinical: disturbances of the sleeping-waking rhythm; assay type: in vivo, human; settings: 10-30 mg orally, insomnia
[14] = Clinical: arteriosclerosis, hypoxydotic states, post-apoplectic syndromes; assay type: in vivo, human
rabbit [15] = settings: in vivo, 40 mg/kg
[16] = Edema by egg white (acute inflammation); assay type: in vivo; settings: orally 20-100 mg/kg and parenterally 10-20 mg/kg
Description: as §2

[17] = Hexobarbital sleeping time in mice; assay type: in vivo, mouse
Method: A further aspect considered by us was the possible action of SAM on the sleeping time by barbiturates. For this purpose an experiment was made in which groups of mice received hexobarbital in a dose of 80 mg/kg/i.p. in accordance with the method of Holten and Larsen (Acta Pharmacol. […] (table).

cat = settings: in vivo, 40 mg/kg
physchem [18] = settings: dry state, percentage of SAM residue
Description: as §3

[19] = Arthritis by adjuvant (chronic inflammation); assay type: in vivo; settings: orally 20-100 mg/kg and parenterally 10-20 mg/kg
Description: as §2

[20] = Hepatic cholesterol degeneration in the rat (Ridout diet); assay type: in vivo; settings: 3 weeks; for Fresh liver weight: cholesterol diet
Method: In studying the hepatoprotective activity we have used an experimental device which produces in the rat the so-called hepatic cholesterol degeneration (Ridout and Coll., Biochem. J. 52, 99, 1952).
In this method, by means of a suitable diet, a conspicuous increase in the total hepatic fats and hepatic cholesterol are obtained in the animals. The substances which act in the lipidic metabolism reduce or annul this increase.
The animals were divided into six groups. The first group was administered with a diet which was varied at will. The second group was administered with the basic diet of Ridout (20 g per rat per day); the other groups were administered with the same diet in the same doses but enriched with cholesterol to the extent of 0.2 g/rat/day. The treatment lasted 3 weeks.
The groups 4,5,6 were administered with SAM in the following doses: 1,2,5 mg/kg/i.p. per day.
At the end of 3 weeks all the animals were killed, the livers were withdrawn and the total fats (Best and Coll., Biochem. J. 40, 368, […]) and cholesterol (Sperry and Brand, J. Biol. Chem. 150, 315, 1943) were determined.

[21] = Granuloma by cotton peelets (chronic inflammation); assay type: in vivo; settings: orally 20-100 mg/kg and parenterally 10-20 mg/kg
Description: as §2

[22] = Edema by carragenine (acute inflammation); assay type: in vivo; settings: orally 20-100 mg/kg and parenterally 10-20 mg/kg
Description: as §2

[23] = Randal and Drlitto test (analgesia); assay type: in vivo; settings: rat
Description: as §2

[24] = rat, in vivo, 10 mg/kg
Method: as §1
Distribution of SAM in some rat tissues.
The values are expressed as μgr/gr.

man = assay: Tolerability in young volunteer healthy subjects (pressure, pulse, respiration, ECG, hemopoietic, hepatic and renal); assay type: in vivo
[25] = Hepatic steatosis in rats (Handler diet, acute alcoholic intoxication, carbon tetrachloride, bromobenzene); assay type: in vivo, rat
Description: This was confirmed by successive pharmacological tests.

rabbits = settings: rabbit, in vivo
[26] = Clinical: Parkinsons disease and Parkinsonisms, in association with Levodopa; assay type: in vivo, human
[27] = Hot plate test (analgesia); settings: rat, in vivo
Description: as §2

[28] = Acute toxicity (DL50) in the mouse; settings: in vivo
Description: In particular, the DL50 in the mouse is greater than 6 g/kg/os and 2.5 g/kg/i.p.

[29] = Toxicity, overall statement; settings: in vivo
[30] = hyperdislipidemia in the uncompensated stage
[31] = intermuscular, intravenous or oral

In the case of C[S+](CC[C@H](N)C(=O)O)C[C@H]1O[C@@H](n2cnc3c(N)ncnc32)[C@H](O)[C@@H]1O.Cc1ccc(S(=O)(=O)O)cc1.O=S(=O)(O)O.O=S(=O)([O-])O (stereo partly drawn) [di-sulphate mono-p.toluenesulphonate], the “stability values compared with di-sulphate di-p.toluenesulphonate” value [1] is reported as “completely equivalent”.

In the case of C[S+](CC[C@H](N)C(=O)O)C[C@H]1O[C@@H](n2cnc3c(N)ncnc32)[C@H](O)[C@@H]1O (stereo partly drawn) [SAM, SAM disulphate di-p-toluenesulphonate], the “hypocholesterolemising and hypolipemising action” value ([2]; about 20-30 mg administered 2-3 times per day) is reported as “proportional to the dose”, the “hepatic lipids in hepatosteatosis” value ([2]; bioptic examination, even after 60 days from the end of treatment) is reported as “rapid fall in the hepatic lipids” and the “altered β/α lipoproteic ratios” value [2, 30] is reported as “normalises the altered β/α lipoproteic ratios”. For the same molecule, the “total cholesterolemia and hypertriglyceridemia” value [2, 30] was “marked fall”, the local tolerability (rabbit [3]; intermuscular injection, repeated over 180 days) was “excellent” and the local tolerability (rabbit [3]; intravenous, marginal vein of the auricular pavillon, rabbit) was “excellent”. The “distribution to the tissues” value [4] was “distributed very rapidly to all the tissues”, the hygroscopicity (physchem [5]; crystalline salt) was “not very hygroscopic” and the solubility (physchem [5]; water) was > 200 mg/mL. For the same molecule, the “subjective symptomology and general objective conditions” value [6] was “often very important improvement”, the “tests of hepatic functionality” value [6] was “normalizing of all the tests of hepatic functionality” and the albumin amount [6, 31] was “an increase in the albumin amount”. The “altered percentage ratios between the electrophoretic fractions of the serum” value [6, 31] was “tendency to normalise”, the total protidemia [6, 31] was “statistically significant increase” and the Total phospholipids ([7]; CCl4 + SAM 15 mg/kg/i.p.) was 27.20 ± 1.25 mg/g. The Total phospholipids ([7]; CCl4 + SAM 150 mg/kg/i.p.) was 20.87 ± 0.42 mg/g, the “levels of phospholipids reduced after intoxication with CCl4” value ([7]; rats, CCl4) was “favours the restoration of normal levels of phospholipids” and the “activity in osteoarthritic forms” value ([8]; 30 mg twice a day i.m. or i.v., and 30-50 mg orally 4 times per day) was “active in all osteoarthritic forms treated”. The “muscular spasm, limitation of movement, localised pain, rigidity” value ([8]; after 7 days of treatment, versus placebo) was “influenced in a statistically significant manner”, the “therapeutic efficiency compared with indomethacin” value ([8]; double blind study) was “equal to indomethacin” and the “concealed blood in the feces” value ([8]; human, in vivo) was “never showed any modification”. The gastric pyrosis ([8]; human, in vivo) was “No case”, the “antalgic effect in neurological frameworks” value ([9]; 15 mg twice a day intermuscular or 30-50 mg 3-4 times per day orally) was “available and efficient from the first day of administration” and the “recurring and resistant cephalalgia” value ([9]; orally in masticable tablets) was “Analogous results”. The “analgesic activity, stretching by acetic acid” value [10] was “active”, the “percentage of SAM residue” value ([11]; 720 h) was 100.1% and the “percentage of SAM residue” value ([11]; 1440 h) was 99.9%. The “remission of the main parameters for the diagnosis of depressive forms” value [12] was “significant remission”, the “tetratogenic actions or malformations” value (rats) was “no tetratogenic actions were encountered or any malformations in the embryons or terminal feti” and the altered sleeping-waking ratios [13] was “considerably improve”. The “recovery of functions in clear hypoxydotic states” value ([14]; hypoxydotic states) was “very quick and statistically significant”, the symptomatology of arteriosclerosis ([14]; intramuscular, intravenous or phleboclysis, 20-40 mg 3-4 times per day) was “very favourable modification of the sumptomatology” and the “improvement of the clinical framework in post-apoplectic syndromes” value ([14]; post-apoplectic syndromes) was “greater rapidity was found in the improvement of the clinical framework”. For the same molecule, the “change in carotid pressure, cardiac and respiratory frequency or electrocardiac trace” value (rabbit [15]) was “does not cause any change”, the “antiinflammatory activity, edema by egg white” value [16] was “active” and the “prolonging the sleeping time induced by hexobarbital” value ([17]; 10 mg/kg/i.p.) was “active in prolonging the sleeping time”. For the same molecule, the Sleeping time ([17]; SAM 10 mg/kg/i.p., hexobarbital 80 mg/kg/i.p.) was 41.2 ± 5.8 min, the “change in carotid pressure, cardiac and respiratory frequency or electrocardiac trace” value (cat) was “does not cause any change” and the remaining at 2880 h (physchem [18]) was 100%. For the same molecule, the remaining at 4320 h (physchem [18]) was 100%, the “antiinflammatory activity, arthritis by adjuvant” value [19] was “active” and the “protection from hepatic cholesterol degeneration” value ([20]; 5 mg/kg) was “completely protected”. The “protection from hepatic cholesterol degeneration” value ([20]; 1-2 mg/kg/i.p.) was “poorly protected”, the Fresh liver weight ([20]; Batch IV, SAM 1 mg/kg/i.p. per day) was 17 g and the Fresh liver weight ([20]; Batch V, SAM 2 mg/kg/i.p. per day) was 16 g. For the same molecule, the Fresh liver weight ([20]; Batch VI, SAM 5 mg/kg/i.p. per day) was 16 g, the “antiinflammatory activity, granuloma by cotton peelets” value [21] was “active” and the “antiinflammatory activity, edema by carragenine” value [22] was “active”. The “analgesic activity, Randal and Drlitto test” value [23] was “active”, the “distribution to the tissues” value [24] was “distributed very rapidly to all the tissues” and the “electrocardiograph trace (PQ interval, ST section, extrasistol)” value (man; 30" to 20' from administration) was “does not show any variations”. For the same molecule, the “hemopoietic apparatus, hepatic and renal operation” value (man; man) was “no variations which were statistically significant from normal”, the “minimum and maximum pressure, pulse and respiratory frequency” value (man; rapid intravenous or phleboclysis, 10-300 mg, 1 minute to 24 hours) was “does not show any variation from normal values” and the “accumulation of lipids at the hepatocite level” value [25] was “significantly reduced the accumulation of lipids”. The “tetratogenic actions or malformations” value (rabbits) was “no tetratogenic actions were encountered or any malformations in the embryons or terminal feti”, the Parkinson tremor ([26]; 10-40 mg per day with Levodopa) was “favourable modifications” and the akinesia and rigidity ([26]; 10-40 mg per day with Levodopa, versus Levodopa only) was “statistically more significant improvement”. The Levodopa side effects ([26]; 10-40 mg per day with Levodopa, nausea, vomit, inappetite, hypotension, asthenia, cephalea, hypersudoration, insomnia) was “significantly blocks”, the Levodopa-dependent psychic disturbances ([26]; with Levodopa) was “distinctly improves” and the “analgesic activity, hot plate” value [27] was “active”.

For C[S+](CC[C@H](N)C(=O)O)C[C@H]1O[C@@H](n2cnc3c(N)ncnc32)[C@H](O)[C@@H]1O (stereo partly drawn) [SAM salt], the LD50 ([28]; ip) was > 2500 mg/kg, the LD50 ([28]; po, os) was > 6000 mg/kg and the toxicity [29] was “absolutely free from acute toxicity, chronic toxicity, local intolerance or secondary effects”.

With C[S+](CC[C@H](N)C(=O)O)C[C@H]1O[C@@H](n2cnc3c(N)ncnc32)[C@H](O)[C@@H]1O (stereo partly drawn) [Chloride] the “percentage of SAM residue” value ([11]; 720 h) was 20%.

For C[S+](CC[C@H](N)C(=O)O)C[C@H]1O[C@@H](n2cnc3c(N)ncnc32)[C@H](O)[C@@H]1O (stereo partly drawn) [Sulphate], the “percentage of SAM residue” value ([11]; 720 h) was 50% and the “percentage of SAM residue” value ([11]; 1440 h) was 5%.

C[S+](CC[C@H](N)C(=O)[O-])C[C@H]1O[C@@H](n2cnc3c(N)ncnc32)[C@H](O)[C@@H]1O (stereo partly drawn) [Ad-Met, reference compound] gave a Total phospholipids ([7]; CCl4 + Ad-Met 15 mg/kg/i.p.) of 19.9 ± 0.92 mg/g.

With N[C@@H](Cc1ccc(O)c(O)c1)C(=O)O [Levodopa, reference compound] the Parkinson tremor ([26]; Levodopa alone) was “cannot be modified”.
